Usually pEC50 stands for the EC50 on a negative log10 scale, so that one unit is a factor of ten. A low value points to a high EC50.

SMILES strings stand for the structures. pEC50: −log10 of the molar value.

One assay deals with T1, Kv3.2 (Homo sapiens, UniProt Q96PR1).
T1 construct: gene KCNC2
T1 sequence (Q96PR1 1-638): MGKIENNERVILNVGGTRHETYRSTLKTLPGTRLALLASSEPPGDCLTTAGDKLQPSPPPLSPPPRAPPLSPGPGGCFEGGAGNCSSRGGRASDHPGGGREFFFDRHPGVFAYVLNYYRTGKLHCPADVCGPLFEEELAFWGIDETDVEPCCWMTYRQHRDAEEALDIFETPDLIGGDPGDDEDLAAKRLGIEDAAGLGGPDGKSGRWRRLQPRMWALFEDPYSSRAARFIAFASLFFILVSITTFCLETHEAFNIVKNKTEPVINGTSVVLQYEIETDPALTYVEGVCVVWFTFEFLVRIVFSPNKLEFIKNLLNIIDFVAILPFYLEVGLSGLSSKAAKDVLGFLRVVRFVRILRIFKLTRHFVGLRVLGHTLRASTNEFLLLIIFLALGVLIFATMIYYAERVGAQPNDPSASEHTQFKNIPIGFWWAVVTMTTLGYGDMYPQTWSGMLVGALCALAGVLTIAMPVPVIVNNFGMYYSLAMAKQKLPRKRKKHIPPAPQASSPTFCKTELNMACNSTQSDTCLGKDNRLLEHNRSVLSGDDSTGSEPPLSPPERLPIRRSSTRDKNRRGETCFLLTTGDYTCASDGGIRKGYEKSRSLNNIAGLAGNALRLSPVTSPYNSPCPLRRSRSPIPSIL
The assay is described as follows: TEVC in Xenopus oocytes, concentration dependence of ΔV0.[…]. The class given is cell-based.

The target of another assay is T2, Kv3.1 (Homo sapiens, UniProt P48547).
T2 construct: gene KCNC1; Full-length human Kv3.1 (isoform A)
T2 sequence (P48547 1-511): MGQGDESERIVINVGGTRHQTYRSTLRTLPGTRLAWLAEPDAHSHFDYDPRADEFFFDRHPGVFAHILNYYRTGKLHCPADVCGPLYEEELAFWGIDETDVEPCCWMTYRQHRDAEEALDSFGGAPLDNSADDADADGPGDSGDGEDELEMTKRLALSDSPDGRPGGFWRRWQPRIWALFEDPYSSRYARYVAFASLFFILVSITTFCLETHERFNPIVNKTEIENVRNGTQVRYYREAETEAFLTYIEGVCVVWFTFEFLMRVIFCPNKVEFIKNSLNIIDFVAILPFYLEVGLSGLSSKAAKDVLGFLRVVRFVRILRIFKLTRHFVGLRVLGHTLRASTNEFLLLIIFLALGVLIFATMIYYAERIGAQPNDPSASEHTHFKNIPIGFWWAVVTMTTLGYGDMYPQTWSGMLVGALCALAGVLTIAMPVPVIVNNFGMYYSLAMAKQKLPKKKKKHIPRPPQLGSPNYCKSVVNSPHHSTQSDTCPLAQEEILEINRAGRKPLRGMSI
The assay is described as follows: cryo-EM structure of the complex ([…] Å); supported by TEVC of Kv3.[…] and binding-site mutants.

`CC[C@H]1NC(=O)N(c2ccc(Oc3cccc4c3C3(CC3)CO4)nc2)C1=O` [AUT5, (5 R)-5-ethyl-3-[6-(spiro[1-benzofuran-3,1’-cyclopropan]-4-yloxy)-3-pyridinyl]-2,4-imidazolidinedione] gave a pEC50 at Kv3.2 of 5.49. Moreover, the “cryo-EM structure of the complex (2.5 Å); supported by TEVC of Kv3.1 and binding” value at Kv3.1 is “A non-protein in the electron density map consistent with AUT5 is found in a cavity between S4 and S5 helices”.

Source of the values: publication PMC10957983, “The binding and mechanism of a positive allosteric modulator of Kv3 channels” (Nature Communications, 2024).
